Experimental data as given in the SangsterLogP compilation.

Assay: method code SF-AS, from DOI: 10.1021/bi00362a019, PMID: 3017413

Row | SMILES | logP
1 | NC(N)=N/N=C/c1cccc([N+](=O)[O-])c1 | 0.01
2 | N=C(N)NN=Cc1ccc(Cl)cc1 | 0.96
3 | NC(N)=N/N=C/c1ccc(Br)cc1 | 1.3
4 | COc1ccc(/C=N/N=C(N)N)cc1 | 0.29
5 | NC(N)=N/N=C/c1ccc(Oc2ccccc2)cc1 | 1.87
6 | CC(C)(C)Oc1ccc(/C=N/N=C(N)N)cc1 | 1.38
7 | N=C(N)NN=Cc1ccc(-c2ccccc2)cc1 | 1.49
8 | NC(N)=N/N=C/c1ccc([N+](=O)[O-])cc1 | 0.87
9 | CN(C)c1ccc(/C=N/N=C(N)N)cc1 | 0.28
10 | NC(N)=N/N=C/c1ccc(Cl)c([N+](=O)[O-])c1 | 0.53
11 | CCN(CC)c1ccc(C=NN=C(N)N)cc1 | 0.56
12 | CCOc1ccc(/C=N/N=C(N)N)cc1 | 0.24
13 | NC(N)=N/N=C/c1ccccc1[N+](=O)[O-] | 0.53
